# In patent US12628856B2, “Nutritional composition having lipophilic compounds with improved solubility and bioavailability” (Abbott Laboratories, priority 2013, dated 2026):
# Experiments:
# Assay type in all cases: physicochemical
# [1] = Bound lipophile index (SEC peak area ratio 280 nm/214 nm); details: Example 35 model systems
# Procedure: The size exclusion chromatography (SEC) system used in the following Examples is as follows: Column: Superdex Peptide 10/300 GL, GE Healthcare P/N 17-5176-01; Mobile Phase: 700 mL Milli-Q Plus water, 300 mL acetonitrile; 1.0 mL trifluoroacetic acid; Flow Rate: 0.4 mL/minute; Temperature: ambient (˜21° C.); Detection: UV light at 214 nm, 280 nm; visible light at 476 nm; Injection: 10 μL; Run Time: 70 minutes; Sample Preparation: dilute 0.6-1.1 g to 10 mL with Mobile Phase; Calibration: by 6 purified reference proteins, 14.2-160 kD.
# The bound lipophile index is determined as follows: a non-specific indicator of lipophilic nutrients (including lutein and any combination of other oil soluble vitamins) in the high MW protein peak (described above). […]
# A study was conducted to evaluate the effect of relative centrifugal force (RCF) on analyzing the high molecular weight lutein assembly in the aqueous phase. […] The compositions were then assessed for high molecular weight lutein assembly and the presence of protein >137 kD as done above, as well as bound lipophile index. Bound lipophile index, a relative marker for of lipophilic nutrients in the high molecular weight assembly, was determined as the peak ratio, 280 nm/214 nm for protein >137 kD.
# [2] = Distribution of lutein and MDG in cream, aqueous and pellet layers after 100,000×g (Example 58); details: 100,000×g for 1 hour; wt % of the nutritional composition
# Procedure: A study was conducted to investigate the distribution of lutein and MDG within the nutritional compositions. Sample were prepared using homogenization at 150/20 bar, and then centrifuged at 100,000×g for 1 hour. The different layers (e.g., cream, aqueous, and pellet) were then analyzed for the presence of lutein and MDG.
# [3] = Centrifugation/ultrafiltration analysis of lutein and MDG distribution (Example 60); details: centrifugation at 100,000×g
# Procedure: A study was conducted to further investigate the distribution of lutein and MDG within the nutritional composition. Samples included MDG/lutein/water; MDG/lutein/NFDM/water; MDG/lutein/WPC/water; and MDG/water.
# The premixes were provided as follows: in samples that contained lutein, lutein was heated for 2 h at 50° C. with shaking. […] In samples that contained protein, non-fat dried milk was added to water (50-60° C.) with agitation and allowed to hydrate for approximately 10 min.
# The samples were prepared as follows: for solution 1, water was heated to 50-60° C., an lutein in GMO-40 blend and turrax (30 sec 10000 rpm) was added; for solution 2, NFDM was placed in water solution heated to 50-60° C., and lutein was added in GMO-40 blend and turrax (30 sec 10000 rpm); for solution 3, water was heated to 50-60° C., and GMO-40 blend and turrax (30 sec 10000 rpm) was added. The solutions are listed in the table below as X.1, wherein 1 is the solution.
# Samples were formulated as detailed above, and then characterized by ultrafiltration with various membranes, as well as ultracentrifuged at various times and speed (e.g., 100,000×g, 4,500×g, and 1,000×g). The details of the different centrifugation/filtration method are listed below. […]
bound lipophile index when choline was present [1],SMILES,present in the aqueous phase following centrifugation [2],lutein in the aqueous phase ([3]; samples containing only lutein and MDG),lutein in the aqueous phase ([3]; samples containing protein)
decreased,C[N+](C)(C)CCO [choline],–,–,–
–,CC1=C[C@H](O)CC(C)(C)[C@H]1/C=C/C(C)=C/C=C/C(C)=C/C=C/C=C(C)/C=C/C=C(C)/C=C/C1=C(C)C[C@@H](O)CC1(C)C [lutein],approximately 4 wt %,negligible,only found in the aqueous phase of samples containing protein
